Source: US20260166039A1 (SCHRÖDINGER, INC., priority 2022, published 2026)

What follows are compounds tested against T1, Wee1 kinase domain (Homo sapiens, UniProt P30291) (assay: Wee1 Kinase Biochemical Assay (ADP-Glo)). Details: 1 nM Wee1 enzyme, 15 uM ATP, 4 hours at 25° C.
T1 construct: Wee1 kinase domain was purchased from Carna (catalog #05-177); purchased Carna 05-177
How it was run: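 Poly(Lys,Tyr 4:1) phosphorylation by the kinase domain is followed as ADP output (ADP-Glo) after 4 h at 25 °C, with ATP at 15 uM. Values are percent inhibition between vehicle and full-inhibition controls.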

T1 sequence (P30291 299-569 limits assumed): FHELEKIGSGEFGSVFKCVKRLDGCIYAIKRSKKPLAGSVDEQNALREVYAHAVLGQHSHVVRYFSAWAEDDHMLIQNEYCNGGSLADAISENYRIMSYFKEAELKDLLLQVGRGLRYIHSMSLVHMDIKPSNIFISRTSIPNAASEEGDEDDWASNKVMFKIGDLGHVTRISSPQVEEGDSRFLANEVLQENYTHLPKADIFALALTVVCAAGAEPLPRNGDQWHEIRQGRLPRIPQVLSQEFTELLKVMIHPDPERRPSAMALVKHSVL

IC50, < 10 nM:
CN1C[C@@H]2C[C@H]1CN2c1ccc(Nc2ncc3c(n2)N(c2cccc(C(F)F)n2)[C@@H]2CC(C)(C)OC[C@]32C)cc1 [Example 813, (4bR,8aR)-9-(6-(difluoromethyl)pyridin-2-yl)-4b,7,7-trimethyl-N-(4-((1S,4S)-5-methyl-2,5-diazabicyclo[2.2.1]heptan-2-yl)phenyl)-4b,5,7,8,8a,9-hexahydropyrano[3′,4′:4,5]pyrrolo[2,3-d]pyrimidin-2-amine]
CN(C)[C@H]1CCN(c2ccc(Nc3ncc4c(n3)N(c3ccccn3)[C@@H]3CC(C)(C)OC[C@]43C)cc2)C1 [Example 820, (4bR,8aR)-N-(4-((S)-3-(dimethylamino)pyrrolidin-1-yl)phenyl)-4b,7,7-trimethyl-9-(pyridin-2-yl)-4b,5,7,8,8a,9-hexahydropyrano[3′,4′:4,5]pyrrolo[2,3-d]pyrimidin-2-amine]

Same assay, conditions: class symbols; 1 nM Wee1 enzyme, 15 uM ATP, 4 hours at 25° C.

IC50, < 10 nM:
CC[C@@]1(O)CCc2ccc(N3c4nc(Nc5ccc(N6C[C@@H]7C[C@H]6CN7C)cc5)ncc4[C@@]4(C)COC(C)(C)C[C@@H]34)nc21 [Example 792, (R)-7-ethyl-2-((4bR,8aR)-4b,7,7-trimethyl-2-((4-((1S,4S)-5-methyl-2,5-diazabicyclo[2.2.1]heptan-2-yl)phenyl)amino)-4b,7,8,8a-tetrahydropyrano[3′,4′:4,5]pyrrolo[2,3-d]pyrimidin-9(5H)-yl)-6,7-dihydro-5H-cyclopenta[b]pyridin-7-ol]
C[C@H]1COC(=O)N1c1cccc(N2c3nc(Nc4ccc([C@H]5CCN(C)C5)cc4)ncc3[C@@]3(C)COCC[C@@H]23)n1 [Example 793, (S)-4-methyl-3-(6-((4bR,8aR)-4b-methyl-2-((4-((R)-1-methylpyrrolidin-3-yl)phenyl)amino)-4b,7,8,8a-tetrahydropyrano[3′,4′:4,5]pyrrolo[2,3-d]pyrimidin-9(5H)-yl)pyridin-2-yl)oxazolidin-2-one]
C[C@H]1COC(=O)N1c1cccc(N2c3nc(Nc4ccc([C@@H]5CCN(C)C5)cc4)ncc3[C@@]3(C)COCC[C@@H]23)n1 [Example 794, (S)-4-methyl-3-(6-((4bR,8aR)-4b-methyl-2-((4-((S)-1-methylpyrrolidin-3-yl)phenyl)amino)-4b,7,8,8a-tetrahydropyrano[3′,4′:4,5]pyrrolo[2,3-d]pyrimidin-9(5H)-yl)pyridin-2-yl)oxazolidin-2-one]
CN1C[C@H]2C[C@@H]1CN2c1ccc(Nc2ncc3c(n2)N(c2cccc(N4C(=O)OCC4(C)C)n2)[C@@H]2CC(C)(C)OC[C@]32C)cc1 [Example 795, 4,4-dimethyl-3-(6-((4bR,8aR)-4b,7,7-trimethyl-2-((4-((1R,4R)-5-methyl-2,5-diazabicyclo[2.2.1]heptan-2-yl)phenyl)amino)-4b,7,8,8a-tetrahydropyrano[3′,4′:4,5]pyrrolo[2,3-d]pyrimidin-9(5H)-yl)pyridin-2-yl)oxazolidin-2-one]
CN1C[C@@H]2C[C@H]1CN2c1ccc(Nc2ncc3c(n2)N(c2cccc(N4C(=O)OCC4(C)C)n2)[C@@H]2CC(C)(C)OC[C@]32C)cc1 [Example 796, 4,4-dimethyl-3-(6-((4bR,8aR)-4b,7,7-trimethyl-2-((4-((1S,4S)-5-methyl-2,5-diazabicyclo[2.2.1]heptan-2-yl)phenyl)amino)-4b,7,8,8a-tetrahydropyrano[3′,4′:4,5]pyrrolo[2,3-d]pyrimidin-9(5H)-yl)pyridin-2-yl)oxazolidin-2-one]
CN1C[C@H]2C[C@@H]1CN2c1ccc(Nc2ncc3c(n2)N(c2cccc(N4C(=O)CCC4(C)C)n2)[C@@H]2CC(C)(C)OC[C@]32C)cc1 [Example 797, 5,5-dimethyl-1-(6-((4bR,8aR)-4b,7,7-trimethyl-2-((4-((1R,4R)-5-methyl-2,5-diazabicyclo[2.2.1]heptan-2-yl)phenyl)amino)-4b,7,8,8a-tetrahydropyrano[3′,4′:4,5]pyrrolo[2,3-d]pyrimidin-9(5H)-yl)pyridin-2-yl)pyrrolidin-2-one]
CN1C[C@@H]2C[C@H]1CN2c1ccc(Nc2ncc3c(n2)N(c2cccc(N4C(=O)CCC4(C)C)n2)[C@@H]2CC(C)(C)OC[C@]32C)cc1 [Example 798, 5,5-dimethyl-1-(6-((4bR,8aR)-4b,7,7-trimethyl-2-((4-((1S,4S)-5-methyl-2,5-diazabicyclo[2.2.1]heptan-2-yl)phenyl)amino)-4b,7,8,8a-tetrahydropyrano[3′,4′:4,5]pyrrolo[2,3-d]pyrimidin-9(5H)-yl)pyridin-2-yl)pyrrolidin-2-one]
CN1C[C@@H]2C[C@H]1CN2c1ccc(Nc2ncc3c(n2)N(c2ccccn2)[C@@H]2CC(C)(C)OC[C@]32C)cc1 [Example 800, (4bR,8aR)-4b,7,7-trimethyl-N-(4-((1S,4S)-5-methyl-2,5-diazabicyclo[2.2.1]heptan-2-yl)phenyl)-9-(pyridin-2-yl)-4b,5,7,8,8a,9-hexahydropyrano[3′,4′:4,5]pyrrolo[2,3-d]pyrimidin-2-amine]
CN1C[C@H]2C[C@@H]1CN2c1ccc(Nc2ncc3c(n2)N(c2ccccn2)[C@@H]2CC(C)(C)OC[C@]32C)cc1 [Example 801, (4bR,8aR)-4b,7,7-trimethyl-N-(4-((1R,4R)-5-methyl-2,5-diazabicyclo[2.2.1]heptan-2-yl)phenyl)-9-(pyridin-2-yl)-4b,5,7,8,8a,9-hexahydropyrano[3′,4′:4,5]pyrrolo[2,3-d]pyrimidin-2-amine]
CN1CC[C@@H](n2ccc(Nc3ncc4c(n3)N(c3cccc(N=S(C)(C)=O)n3)[C@@H]3CC(C)(C)OC[C@]43C)cc2=O)C1 [Example 804, 4-(((4bR,8aR)-9-(6-((dimethyl(oxo)-16-sulfaneylidene)amino)pyridin-2-yl)-4b,7,7-trimethyl-4b,5,7,8,8a,9-hexahydropyrano[3′,4′:4,5]pyrrolo[2,3-d]pyrimidin-2-yl)amino)-1-((R)-1-methylpyrrolidin-3-yl)pyridin-2(1H)-one]
CN1CC[C@H](n2ccc(Nc3ncc4c(n3)N(c3cccc(N=S(C)(C)=O)n3)[C@@H]3CC(C)(C)OC[C@]43C)cc2=O)C1 [Example 805, 4-(((4bR,8aR)-9-(6-((dimethyl(oxo)-16-sulfaneylidene)amino)pyridin-2-yl)-4b,7,7-trimethyl-4b,5,7,8,8a,9-hexahydropyrano[3′,4′:4,5]pyrrolo[2,3-d]pyrimidin-2-yl)amino)-1-((S)-1-methylpyrrolidin-3-yl)pyridin-2(1H)-one]
CC1(C)C[C@H]2N(c3ccccn3)c3nc(Nc4ccc(N5CCN6CC[C@@H]5C6)cc4)ncc3[C@@]2(C)CO1 [Example 808, (4bR,8aR)-N-(4-((5R)-1,4-diazabicyclo[3.2.1]octan-4-yl)phenyl)-4b,7,7-trimethyl-9-(pyridin-2-yl)-4b,5,7,8,8a,9-hexahydropyrano[3′,4′:4,5]pyrrolo[2,3-d]pyrimidin-2-amine]
CC1(C)C[C@H]2N(c3ccccn3)c3nc(Nc4ccc(N5CCN6CC[C@H]5C6)cc4)ncc3[C@@]2(C)CO1 [Example 809, (4bR,8aR)-N-(4-((5S)-1,4-diazabicyclo[3.2.1]octan-4-yl)phenyl)-4b,7,7-trimethyl-9-(pyridin-2-yl)-4b,5,7,8,8a,9-hexahydropyrano[3′,4′:4,5]pyrrolo[2,3-d]pyrimidin-2-amine]
CC[C@]1(O)CCc2ccc(N3c4nc(Nc5ccn(C6CCN(C)CC6)c(=O)c5)ncc4[C@@]4(C)COC(C)(C)C[C@@H]34)nc21 [Example 811, 4-(((4bR,8aR)-9-((S)-7-ethyl-7-hydroxy-6,7-dihydro-5H-cyclopenta[b]pyridin-2-yl)-4b,7,7-trimethyl-4b,5,7,8,8a,9-hexahydropyrano[3′,4′:4,5]pyrrolo[2,3-d]pyrimidin-2-yl)amino)-1-(1-methylpiperidin-4-yl)pyridin-2(1H)-one]
